“And” between values parts separate entries of the source, which are not always exact repeats. Equal entries are not always repeated. Inconclusive results and toxic doses are left out. Rule as the data show it: active = T/C of 150% or more; inactive = T/C below 125%.
Tested on: L1210 leukemia ip in BDF1 mice, survival T/C
Experiment: NCI In Vivo Anticancer Drug Screen. Data for tumor model L1210 Leukemia (intraperitoneal) in B6D2F1 (BDF1) mice
Conditions: endpoint: mean survival time, higher = longer survival
Method in brief: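 Mice bearing the transplanted tumor received compound or vehicle. Survival of the treated group was divided by that of the vehicle-treated control group to give the ratio.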

[1] = dose: 100.0 mg/kg/injection, schedule: Q01DX009 (ip), vehicle: saline with Tween-80
[2] = dose: 200.0 mg/kg/injection, schedule: Q01DX009 (ip), vehicle: saline with Tween-80
[3] = dose: 100.0 mg/kg/injection, schedule: Q01DX001 (ip), vehicle: saline
[4] = dose: 200.0 mg/kg/injection, schedule: Q01DX001 (ip), vehicle: saline
[5] = dose: 400.0 mg/kg/injection, schedule: Q01DX001 (ip), vehicle: saline
[6] = dose: 400.0 mg/kg/injection, schedule: Q01DX009 (ip), vehicle: saline with Tween-80
[7] = dose: 100.0 mg/kg/injection, schedule: Q01DX009 (ip), vehicle: Klucel (hydroxypropylcellulose) (HPC)
[8] = dose: 200.0 mg/kg/injection, schedule: Q01DX009 (ip), vehicle: Klucel (hydroxypropylcellulose) (HPC)
[9] = dose: 400.0 mg/kg/injection, schedule: Q01DX009 (ip), vehicle: Klucel (hydroxypropylcellulose) (HPC)
[10] = dose: 100.0 mg/kg/injection, schedule: Q01DX009 (ip), vehicle: saline
[11] = dose: 100.0 mg/kg/injection, schedule: Q04DX003 (ip), vehicle: saline
[12] = dose: 200.0 mg/kg/injection, schedule: Q01DX009 (ip), vehicle: saline
[13] = dose: 400.0 mg/kg/injection, schedule: Q01DX009 (ip), vehicle: saline
[14] = dose: 100.0 mg/kg/injection, schedule: Q04DX002 (ip), vehicle: saline with Tween-80
[15] = dose: 200.0 mg/kg/injection, schedule: Q04DX002 (ip), vehicle: saline with Tween-80
[16] = dose: 400.0 mg/kg/injection, schedule: Q04DX002 (ip), vehicle: saline with Tween-80
[17] = dose: 100.0 mg/kg/injection, schedule: Q01DX001 (ip), vehicle: saline with Tween-80
[18] = dose: 200.0 mg/kg/injection, schedule: Q01DX001 (ip), vehicle: saline with Tween-80
[19] = dose: 400.0 mg/kg/injection, schedule: Q01DX001 (ip), vehicle: saline with Tween-80

Measured: T/C

CCOC(=O)c1c2c3c(c(Br)cc(C)c3[nH]c1=O)C(=O)c1ccccc1-2
inactive: dose: 50.0 mg/kg/injection, schedule: Q01DX009 (ip), vehicle: saline with Tween-80 97 % of control | [1] 101 % of control | [2] 101 % of control

CSc1ccc(C(=O)CCl)c(C)c1
inactive: dose: 50.0 mg/kg/injection, schedule: Q01DX001 (ip), vehicle: carboxymethylcellulose (CMC) 94 % of control

Nc1ncnc2nc(SC3OC(CO)C(O)C3O)[nH]c12 (stereo not given)
inactive: dose: 150.0 mg/kg/injection, schedule: Q01DX001 (ip), vehicle: saline 100 % of control | dose: 300.0 mg/kg/injection, schedule: Q01DX001 (ip), vehicle: saline 100 % of control

CCCCCCCC(=O)N1CCCN(C(=O)CCCCCCC)C1
inactive: dose: 30.0 mg/kg/injection, schedule: Q01DX001 (ip), vehicle: saline 94 % of control | [3] 100 % of control

CCCCCCCC/C(C=O)=C\c1ccc(C)cc1
inactive: [3] 86 % of control | [4] 102 % of control | [5] 87 % of control

CCCC(CCCC(=O)O)C(=O)c1ccccc1 (stereo not given)
inactive: [1] 101 % of control | [2] 104 % of control | [6] 100 % of control

COc1cc([N+](=O)[O-])ccc1NC(=O)Oc1cc(C)ccc1C(C)C
inactive: [7] 103 % of control | [8] 104 % of control | [9] 104 % of control

O=C1NC(c2ccccc2)(c2ccccc2)C(=O)N1CC1CO1 (stereo not given)
inactive: [10] 100 % of control | [11] 103 % of control | [12] 91 % of control | dose: 200.0 mg/kg/injection, schedule: Q04DX003 (ip), vehicle: saline 102 % of control | [13] 93 % of control | dose: 400.0 mg/kg/injection, schedule: Q04DX003 (ip), vehicle: saline 97 % of control

O=c1cc(NCc2ccccc2Cl)[nH]c(=O)[nH]1
inactive: dose: 100.0 mg/kg/injection, schedule: Q01DX001 (ip), vehicle: gum acacia 93 % of control | dose: 200.0 mg/kg/injection, schedule: Q01DX001 (ip), vehicle: gum acacia 95 % of control | dose: 400.0 mg/kg/injection, schedule: Q01DX001 (ip), vehicle: gum acacia 101 % of control

O/N=C(/C(=N/O)c1ccccc1)c1ccccc1.O/N=C(/C(=N/O)c1ccccc1)c1ccccc1.[Ni]
inactive: [14] 97 % of control | [15] 97 % of control | [16] 93 % of control

c1ccc2c(c1)C[N+](=C1CCCCC1)Cc1ccccc1-2
inactive: dose: 25.0 mg/kg/injection, schedule: Q01DX009 (ip), vehicle: saline 103 % of control | dose: 50.0 mg/kg/injection, schedule: Q01DX009 (ip), vehicle: saline 106 % of control | [10] 101 % of control | [11] 99 % of control

NCCC(c1ccccc1)c1ccccc1
inactive: dose: 75.0 mg/kg/injection, schedule: Q01DX001 (ip), vehicle: carboxymethylcellulose (CMC) 104 % of control

Cc1ccc(S(=O)(=O)NC(=O)C(C)Br)cc1 (stereo not given)
inactive: dose: 150.0 mg/kg/injection, schedule: Q01DX001 (ip), vehicle: steriod suspending solution 95 % of control | dose: 300.0 mg/kg/injection, schedule: Q01DX001 (ip), vehicle: steriod suspending solution 95 % of control

OC/C=C/Cl
inactive: dose: 25.0 mg/kg/injection, schedule: Q01DX001 (ip), vehicle: acetone 106 % of control | dose: 50.0 mg/kg/injection, schedule: Q01DX001 (ip), vehicle: acetone 97 % of control | dose: 100.0 mg/kg/injection, schedule: Q01DX001 (ip), vehicle: acetone 98 % of control

Cc1ncsc1CCO
inactive: [17] 98 % of control | [18] 102 % of control | [19] 94 % of control

CC(C(=O)O)(c1c[nH]c2ccccc12)c1c[nH]c2ccccc12
inactive: dose: 50.0 mg/kg/injection, schedule: Q01DX001 (ip), vehicle: saline 106 % of control | [3] 103 % of control | [4] 92 % of control | [5] 86 % of control

c1ccc(-c2nnc3ccccn23)cc1
inactive: dose: 100.0 mg/kg/injection, schedule: Q01DX001 (ip), vehicle: Klucel (hydroxypropylcellulose) (HPC) 102 % of control | dose: 200.0 mg/kg/injection, schedule: Q01DX001 (ip), vehicle: Klucel (hydroxypropylcellulose) (HPC) 106 % of control

CC(C)=NC(=O)NO.[Cl][Zn][Cl]
inactive: dose: 15.0 mg/kg/injection, schedule: Q01DX001 (ip), vehicle: carboxymethylcellulose (CMC) 95 % of control | dose: 30.0 mg/kg/injection, schedule: Q01DX001 (ip), vehicle: carboxymethylcellulose (CMC) 89 % of control | dose: 60.0 mg/kg/injection, schedule: Q01DX001 (ip), vehicle: carboxymethylcellulose (CMC) 100 % of control

Cc1cc(=O)n(Cc2ccccc2)c(O)c1C
inactive: [7] 95 % of control | dose: 100.0 mg/kg/injection, schedule: Q04DX003 (ip), vehicle: Klucel (hydroxypropylcellulose) (HPC) 94 % of control | [8] 91 % of control | dose: 200.0 mg/kg/injection, schedule: Q04DX003 (ip), vehicle: Klucel (hydroxypropylcellulose) (HPC) 94 % of control | [9] 93 % of control | dose: 400.0 mg/kg/injection, schedule: Q04DX003 (ip), vehicle: Klucel (hydroxypropylcellulose) (HPC) 98 % of control

Cc1ccc(C)c(NC(=O)Nc2nccs2)c1
inactive: [17] 96 % of control | [1] 96 % of control and 97 % of control | [14] 96 % of control and 90 % of control | dose: 100.0 mg/kg/injection, schedule: Q04DX003 (ip), vehicle: saline with Tween-80 95 % of control | [18] 104 % of control | [2] 92 % of control and 93 % of control | [15] 93 % of control and 97 % of control | dose: 200.0 mg/kg/injection, schedule: Q04DX003 (ip), vehicle: saline with Tween-80 86 % of control | [19] 96 % of control | [6] 94 % of control and 96 % of control | [16] 100 % of control and 110 % of control | dose: 400.0 mg/kg/injection, schedule: Q04DX003 (ip), vehicle: saline with Tween-80 88 % of control

ClC1=CC2CCC(C2)C1Cl (stereo not given)
inactive: [10] 106 % of control | dose: 100.0 mg/kg/injection, schedule: Q04DX003 (ip), vehicle: acetone 88 % of control | [12] 102 % of control | dose: 200.0 mg/kg/injection, schedule: Q04DX003 (ip), vehicle: acetone 88 % of control | [13] 103 % of control | dose: 400.0 mg/kg/injection, schedule: Q04DX003 (ip), vehicle: acetone 90 % of control
